Structures can show the parent of a compound that is named as a salt.

The first data set deals with AMPA receptors. The experiment in a line: electrophysiological assay, AMPA receptors expressed in oocyte. The class given is cell-based, rat. The note with it: inhibiting or modulating AMPA receptors expressed in oocyte; read-out: AMPA IC50. The text has this:
The compounds of the present invention may be assessed by electrophysiological assays in Xenopus oocytes expressing rat whole brain poly(A)^+ RNA (see Keana et. al. J. Med. Chem. 38: 4367-4379 (1995)) or in cultured rat cortical neurons (see Woodward et. al. Mol. Pharmacol. 47: 568-581 (1995)) for AMPA receptor activity. Compounds which are useful for treating or preventing the adverse consequences of stroke, hypoglycemia, neurodegenerative disorders, anxiety, epilepsy or psychosis, or which induce analgesia, will inhibit the currents across the membranes of the oocyte expressing AMPA receptors. However, if the compound potentiates currents across the oocyte membrane, then the compound is expected to be useful in enhancing cognition or treating schizophrenia or neurodegenerative disease such as Parkinson's Disease.
The potency of antagonism or potentiation for these compounds were determined by electrophysiological assay. Potencies of selective compounds described above in inhibiting or modulating AMPA receptors expressed in oocyte and their anticonvulsant activity against maximal electroshock induced convulsion are shown in Table 1.
On to `NCCCc1nc(-c2ccc3c(c2)OCO3)c2cc3c(cc2n1)OCO3` [2-(3-aminopropyl)-6,7-methylenedioxy-4-(3,4-methylenedioxyphenyl)quinazoline], for which the IC50 – broadly, the concentration at which inhibition is half-maximal – was 12 µM.

For the compound `CCn1c(=O)nc(-c2ccc3ccccc3c2)c2cc3c(cc21)OCO3` [1-Ethyl-6,7-methylenedioxy-4-(2-naphthyl)quinazolin-2(1H)-one], the IC50 worked out at 5 µM.

`CN(C)Cc1nc2cc3c(cc2c(-c2ccc4c(c2)OCO4)[n+]1[O-])OCO3` [2-Dimethylaminomethyl-6,7-methylenedioxy-4-(3,4-methylenedioxyphenyl)quinazoline-3-oxide]: the concentration for half-maximal inhibition (IC50) came to 10 µM.

As to `CN(C)CCCCCOc1nc(-c2ccc3c(c2)OCO3)c2cc3c(cc2n1)OCO3` [2-[(3-Dimethylaminopropyl)ethoxy]-6,7-methylenedioxy-4-(3,4-methylenedioxyphenyl)quinazoline], the IC50 was found to be 12 µM.

For `CCn1c(=O)nc(-c2cc3c(cc2[N+](=O)[O-])OCO3)c2cc3c(cc21)OCO3` [1-Ethyl-6,7-methylenedioxy-4-(3,4-methylenedioxy-6-nitrophenyl)quinazolin-2(1H)-one], the half-maximal inhibitory concentration (IC50) came out at 4.7 µM.

With `Cc1nc2cc3c(cc2c(-c2ccc4c(c2)OCO4)[n+]1[O-])OCO3` [2-Methyl-6,7-methylenedioxy-4-(3,4-methylenedioxyphenyl)quinazoline 3-oxide], the half-inhibitory concentration (IC50) was found to be 4 µM.

For `O=c1nc(-c2ccc3c(c2)OCO3)c2cc3c(cc2n1CCn1ccnc1)OCO3` [1-(Imidazol-1-yl)ethyl-6,7-methylenedioxy-4-(3,4-methylenedioxyphenyl)quinazoline-2-one], the concentration for half-maximal inhibition (IC50) is 5 µM.

Consider `ClCCCc1nc(-c2ccc3c(c2)OCO3)c2cc3c(cc2n1)OCO3` [2-(3-Chloropropyl)-4-(3,4-methylenedioxyphenyl)-6,7-methylenedioxyquinazoline], for which the IC50 is 11 µM.

For the compound `CCOc1nc(-c2ccc3c(c2)OCO3)c2cc3c(cc2n1)OCO3` [2-Ethoxy-6,7-methylenedioxy-4-(3,4-methylenedioxyphenyl)-quinazoline], the half-maximal inhibitory concentration (IC50) was determined as 6 µM.

With `Clc1nc(-c2ccc3c(c2)OCO3)c2cc3c(cc2n1)OCO3` [2-Chloro-4-(3,4-methylenedioxyphenyl)-6,7-methylendioxyquinazoline], the 50% inhibitory concentration (IC50) amounted to 6 µM.

With `ICc1nc(-c2ccc3c(c2)OCO3)c2cc3c(cc2n1)OCO3` [2-Iodomethyl-6,7-methylenedioxy-4-(3,4-methylenedioxyphenyl)quinazoline], the 50% inhibitory concentration (IC50) came out at 7 µM.

For `Cc1nc(-c2ccc3c(c2)OCO3)c2cc3c(cc2n1)OCO3` [6,7-Methylenedioxy-4-(3,4-methylenedioxyphenyl)-2-methylquinazoline], the half-maximal inhibitory concentration (IC50) amounted to 4.5 µM.

Turning to `O=c1nc(-c2ccc3c(c2)OCO3)c2cc3c(cc2n1CCO)OCO3` [1-[(2-Hydroxy)ethyl]-6,7-methylenedioxy-4-(3,4-methylenedioxyphenyl)quinazoline-2-one], the IC50 was found to be 1.5 µM.

`CC(C)n1c(=O)nc(-c2ccc3c(c2)OCO3)c2cc3c(cc21)OCCO3` [6,7-Ethylenedioxy-1-isopropyl-4-(3,4-methylenedioxyphenyl)quinazolin-2(1H)-one]: the IC50 was found to be 7 µM.

Take `O=c1nc(-c2ccc3c(c2)OCO3)c2cc3c(cc2n1CC1CC1)OCO3` [1-cyclopropylmethyl-6,7-methylenedioxy-4-(3,4-methylenedioxyphenyl) quinazolin-2(1H)-one]: the IC50 came out at 6 µM.

As to `[O-][n+]1c(CN2CCCC2)nc2cc3c(cc2c1-c1ccc2c(c1)OCO2)OCO3` [2-(Pyrrolidin-1-yl)methyl-6,7-methylenedioxy-4-(3,4-methylenedioxyphenyl)quinazoline-3-oxide], the concentration for half-maximal inhibition (IC50) was 7 µM.

“1-[2-(N-methylpyrrolidin-1-yl)ethyl]-6,7-methylenedioxy-4-(3,4-methylenedioxyphenyl)quinazoline-2-one”: the IC50 is 4 µM.

`c1cn(CCOc2nc(-c3ccc4c(c3)OCO4)c3cc4c(cc3n2)OCO4)cn1` [2-[2-(Imidazol-1-yl)ethoxy]-6,7-methylenedioxy-4-(3,4-methylenedioxyphenyl)quinazoline]: the concentration for half-maximal inhibition (IC50) worked out at 10 µM.

With `CC(C)n1c(=O)nc(-c2ccc3c(c2)OCO3)c2cc3oc(=O)n(Cc4ccccc4)c3cc21` [1-Isopropyl-4-(3,4-methylenedioxyphenyl)-8-benzyl-7-oxo-oxazol[5,4-g]quinazolin-2(1H)-one], the IC50 came out at 3 µM.

In the case of `[O-][n+]1c(Cn2ccnc2)nc2ccc3c(c2c1-c1ccc2c(c1)OCO2)OCO3` [2-(1-Imidazolyl)methyl-5,6-methylenedioxy-4-(3,4-methylenedioxyphenyl)quinazoline 3-oxide hydrochloride], the IC50 was found to be 6 µM.

Turning to `CN(C)CCc1nc(-c2ccc3c(c2)OCO3)c2cc3c(cc2n1)OCO3` [2-(2-Dimethylaminoethyl)-4-(3,4-methylenedioxyphenyl)-6,7-methylenedioxyquinazoline], the IC50 is 8 µM.

On to `c1cc2c(cc1-c1nc(CN3CCNCC3)nc3cc4c(cc13)OCO4)OCO2` [6,7-Methylenedioxy-2-(piperazin-1-yl)methyl-4-(3,4-methylenedioxyphenyl)quinazoline], for which the half-maximal inhibitory concentration (IC50) is 12 µM.

As for `OCc1nc(-c2ccc3c(c2)OCO3)c2cc3c(cc2n1)OCO3` [2-Hydroxymethyl-6,7-methylenedioxy-4-(3,4-methylenedioxyphenyl)quinazoline], the IC50 amounted to 6 µM.

Consider `CC(C)n1c(=O)nc(-c2ccc3c(c2)OCCO3)c2cc3oc(=O)n(C)c3cc21` [1-Isopropyl-4-(3,4-ethylenedioxyphenyl)-8-methyl-7-oxo-oxazol[5.4-g]quinazolin-2(1H)-one], for which the IC50 stood at 3.2 µM.

In the case of `O=c1c2cc3c(cc2c(-c2ccc4c(c2)OCO4)nn1CCn1ccnc1)OCO3` [2-[2-(1-Imidazolyl)ethyl]-4-(3,4-methylenedioxyphenyl)-6,7-methylenedioxy-1(2H)-phthalazinone], the IC50 was found to be 6 µM.

With `CC(C)(O)c1nc(-c2ccc3c(c2)OCO3)c2cc3c(cc2n1)OCO3` [6,7-methylenedioxy-4-(3,4-methylenedioxyphenyl)-2-(1-hydroxy-1-methylethyl)quinazoline], the 50% inhibitory concentration (IC50) was 6 µM.

For the compound `CCn1nc(-c2ccc3c(c2)OCO3)c2cc3c(cc2c1=O)OCO3` [2-Ethyl-4-(3,4-methylenedioxyphenyl)-6,7-methylenedioxy-1(2H) -phthalazinone], the IC50 was 3 µM.

As for `O=c1nc(-c2ccc3c(c2)OCO3)c2cc3c(cc2n1CCN1CCCCC1)OCO3` [1-(Piperidin-1-yl)ethyl-6,7-methylenedioxy-4-(3,4-methylenedioxyphenyl)quinazoline-2-one], the 50% inhibitory concentration (IC50) was found to be 4 µM.

On to `OCCOc1nc(-c2ccc3c(c2)OCO3)c2cc3c(cc2n1)OCO3` [2-[(2-Hydroxy)ethoxy]-6,7-methylenedioxy-4-(3,4-methylenedioxyphenyl)quinazoline], for which the IC50 worked out at 4 µM.

Regarding `O=c1nc(-c2ccc3c(c2)OCO3)c2cc3c(cc2n1CCN1CCCC1)OCO3` [1-(2-Pyrrolidinylethyl)-6,7-methylenedioxy-4(3,4-methylenedioxyphenyl)quinazolin-2(1H)-one], the 50% inhibitory concentration (IC50) was found to be 1.6 µM.

On to `CCc1nc(-c2ccc3c(c2)OCO3)c2cc3c(cc2n1)OCO3` [2-Ethyl-4-(3,4-methylenedioxyphenyl)-6,7-methylenedioxyquinazoline], for which the half-inhibitory concentration (IC50) came out at 4.3 µM.

On to `COCCn1c(=O)nc(-c2ccc3c(c2)OCO3)c2cc3c(cc21)OCO3` [1-[(2-Methoxy)ethyl]-6,7-methylenedioxy-4-(3,4-methylenedioxyphenyl)quinazoline-2-one], for which the IC50 stood at 13 µM.

On to `O=c1nc(-c2ccc3c(c2)OCO3)c2cc3c(cc2n1CCN1CCOCC1)OCO3` [4-(4,4-methylenedioxyphenyl)-6,7-methylenedioxy-1-(2-morpholinylethyl)-quinazolin-2(1H)-one], for which the IC50 was found to be 4 µM.

Turning to `CCOC(=O)CCn1nc(-c2ccc3c(c2)OCO3)c2cc3c(cc2c1=O)OCO3` [2-[2(ethoxycarbonyl)ethyl]-4-(3,4-methylenedioxyphenyl)-6,7-methylenedioxy-1(2H)-phthalazinone], the IC50 worked out at 3 µM.

Turning to `CCn1c(=O)nc(-c2cc3c(cc2N)OCO3)c2cc3c(cc21)OCO3` [1-Ethyl-6,7-methylenedioxy-4-(2-amino-4,5-methylenedioxyphenyl)quinazolin-2(1H)-one], the IC50 came to 7 µM.

As for `NCCn1c(=O)nc(-c2ccc3c(c2)OCO3)c2cc3c(cc21)OCO3` [1-(2-aminoethyl)-6,7-methylenedioxy-4-(3,4-methylenedioxyphenyl)quinazoline-2(1H)-one], the half-inhibitory concentration (IC50) was determined as 1 µM.

On to `CN(C)CCCn1c(=O)nc(-c2ccc3c(c2)OCO3)c2cc3c(cc21)OCO3` [1-(3-Dimethylaminopropyl)-6,7-methylenedioxy-4-(3,4-methlenedioxyphenyl)quinazoline-2-one], for which the concentration for half-maximal inhibition (IC50) worked out at 3 µM.

Still in this data set, the particulars now being: read-out: AMPA IC50; inhibiting or modulating AMPA receptors expressed in oocyte.
As for `ClCCc1nc(-c2ccc3c(c2)OCO3)c2cc3c(cc2n1)OCO3` [2-(2-Chloroethyl)-6,7-methylenedioxy-4-(3,4-methylenedioxyphenyl)quinazoline], the 50% inhibitory concentration (IC50) was 3 µM.

Tested on in a further data set: not given
Test: not given
Conditions: not given
As for `O=c1nc(-c2ccccc2)c2cc3c(cc2[nH]1)OCO3`, the melting point – broadly, the temperature, or range, at which the solid turns liquid – lay in the range of 351 to 354 °C.

`CC(=O)OCc1nc(-c2ccc3c(c2)OCO3)c2cc3c(cc2n1)OCO3` displayed a melting point of 144 to 147 °C.

Regarding `CC(CN(C)C)On1c(=O)nc(-c2ccc3c(c2)OCO3)c2cc3c(cc21)OCO3` (stereo not drawn), the melting point fell in the range of 160 to 165 °C.

Consider `COc1nc(-c2ccc3c(c2)OCO3)c2cc3c(cc2n1)OCO3`, for which the melting point lay in the range of 216 to 223 °C.

(Values after US7652006B2, “Substituted 1(2H)-phthalazinones and pharmaceutical compositions thereof” (Euro-Celtique S.A., priority 1998, dated 2010).)
